Legend:
mGluR5 receptor [1] = molecular target: T1, mGluR5 receptor (Sus scrofa, UniProt I3LUI7); assay: Inhibition of [^3H]-MPEP binding in the mGluR5 receptor binding assay (pig brain homogenate); conditions: 5 nM [^3H]-MPEP
T1 construct: pig brain hemispheres without medulla, cerebellum and pons ... differential centrifugation at 900×g and 40,000×g
Procedure: I. Method for Determining the Inhibition of [^3H]-MPEP Binding in the mGluR5 Receptor Binding Assay […]
The batches are then filtered with the assistance of a Brandel Cell Harvester (Brandel, Robotic 9600 model) on Unifilter plates with glass filter mats (Perkin Elmer, order number 6005177) and then washed 3 times with buffer (as above) using 250 μl per sample. The filter plates are then dried for 60 min at 55° C. Then 30 μl of Ultima Gold™ scintillating material (Packard BioScience, order number 6013159) is added per well and after 3 hours the samples are measured using the β counter (Microbeta, Perkin Elmer). Nonspecific binding is determined by the addition of 10 μM MPEP (Tocris, order number 1212).

mGluR5 receptor [2] = molecular target: T2, mGluR5 receptor (Homo sapiens, UniProt P41594); assay: Functional Ca^2+ influx assay in the mGluR5 receptor assay (CHO-hmGluR5 cells, DHPG 10 μM); format: cell-based; conditions: Ki=IC50/(1+(AGconc./EC50))
T2 construct: host or cells: CHO cells (CHO-hmGluR5), incubated overnight with doxycycline
T2 sequence (P41594 21-1212): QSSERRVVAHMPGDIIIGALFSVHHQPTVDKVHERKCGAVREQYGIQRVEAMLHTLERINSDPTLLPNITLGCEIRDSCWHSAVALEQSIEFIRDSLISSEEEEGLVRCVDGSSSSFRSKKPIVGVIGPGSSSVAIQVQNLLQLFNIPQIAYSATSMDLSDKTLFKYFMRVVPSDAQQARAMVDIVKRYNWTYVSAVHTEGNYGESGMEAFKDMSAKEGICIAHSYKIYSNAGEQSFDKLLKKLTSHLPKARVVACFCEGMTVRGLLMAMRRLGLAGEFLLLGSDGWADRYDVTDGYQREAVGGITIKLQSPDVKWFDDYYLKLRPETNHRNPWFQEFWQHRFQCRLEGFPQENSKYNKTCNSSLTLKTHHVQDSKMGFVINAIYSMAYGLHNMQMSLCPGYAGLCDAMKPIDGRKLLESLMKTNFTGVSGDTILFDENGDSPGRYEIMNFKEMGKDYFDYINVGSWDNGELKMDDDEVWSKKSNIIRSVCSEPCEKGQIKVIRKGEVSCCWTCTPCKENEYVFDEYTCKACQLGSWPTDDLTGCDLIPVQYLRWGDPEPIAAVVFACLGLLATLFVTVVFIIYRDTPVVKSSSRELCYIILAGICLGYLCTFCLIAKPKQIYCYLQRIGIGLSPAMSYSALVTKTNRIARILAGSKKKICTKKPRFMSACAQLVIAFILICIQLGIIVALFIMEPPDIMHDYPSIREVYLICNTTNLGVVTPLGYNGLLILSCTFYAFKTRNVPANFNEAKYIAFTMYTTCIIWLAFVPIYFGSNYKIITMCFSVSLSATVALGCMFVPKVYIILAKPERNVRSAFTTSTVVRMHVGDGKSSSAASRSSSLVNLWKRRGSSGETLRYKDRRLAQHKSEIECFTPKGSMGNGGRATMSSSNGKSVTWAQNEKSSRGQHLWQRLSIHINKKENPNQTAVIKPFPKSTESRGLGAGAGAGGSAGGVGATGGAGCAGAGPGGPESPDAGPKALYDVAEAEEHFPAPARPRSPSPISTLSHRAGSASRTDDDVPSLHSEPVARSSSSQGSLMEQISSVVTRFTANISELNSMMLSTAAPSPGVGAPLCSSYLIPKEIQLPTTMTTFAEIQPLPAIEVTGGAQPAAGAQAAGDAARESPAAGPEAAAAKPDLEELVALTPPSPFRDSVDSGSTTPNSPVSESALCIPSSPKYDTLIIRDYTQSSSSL
Excerpt: II. Method for Determining Ca^2+ Influx in the mGluR5 Receptor Assay
[…] According to this assay, intracellular Ca^2+ release is quantified after activation of the mGluR5 receptor with the assistance of a Ca^2+-sensitive dye (type Fluo-4, Molecular Probes Europe BV, Leiden, Netherlands) in a FlexStation (Molecular Devices, Sunnyvale, USA).
Description of the Functional Ca^2+ Influx Assay
20,000 CHO-hmGluR5 cells/well (Euroscreen, Gosselies, Belgium) are pipetted out into 96 well plates (BD Biosciences, Heidelberg, Germany, Ref. 356640, clear bottom, 96 well, poly-D-lysine) and incubated overnight in HBSS buffer (Gibco No. 14025-050) with the following additives: 10% FCS (GIBCO, 10270-106) and doxycycline (BD Biosciences Clontech 631311 600 ng/ml).
For the purpose of functional investigation, the cells were loaded with 2 μM Fluo-4 and 0.01 vol. % Pluronic F127 (Molecular Probes Europe BV, Leiden, Netherlands) in HBSS buffer (Hank's buffered saline solution, Gibco Invitrogen GmbH, Karlsruhe, Germany) with Probenicid (Sigma P8761, 0.69 mg/ml) for 30 min at 37° C.
The cells are then washed 3 times with washing buffer (HBSS buffer, Gibco No. 14025-050, with Probenicid (Sigma P8761, 0.69 mg/ml) and then resuspended with the same buffer to make up to 100 μl. After 15 min, the plates are transferred for determination of Ca^2+ measurements in the presence of DHPG ((S)-3,5-dihydroxyphenylglycine, Tocris Biotrend Chemikalien GmbH, Cologne, Germany, final DHPG concentration: 10 μM) and in the presence or absence of test substances into a FLuorometric Imaging Plate Reader (FLIPR, Molecular Devices, Sunnyvale, Calif.).
Ca^2+-dependent fluorescence is measured before and after addition of test substances. Quantification proceeds by measuring the highest fluorescence intensity over time.
After recording a fluorescence baseline for 10 s, 50 μl of test substance solution (various test substance concentrations in HBSS buffer with 1% DMSO and 0.02% Tween 20, Sigma) are added and the fluorescence signal is measured for 6 min. Then, 50 μl of DHPG solution ((S)-3,5-dihydroxyphenylglycine, Tocris Biotrend Chemikalien GmbH, Cologne, Germany, final DHPG concentration: 10 μM) are added and Ca^2+ influx is simultaneously measured for 60 s. The final DMSO concentration amounts to 0.25% and the final Tween 20 content amounts to 0.005%. The data are analysed with Microsoft Excel and GraphPad Prism. The dose-response curves are calculated with non-linear regression and IC50 values are determined. Each data point is determined in triplicate and IC50 values are averaged from a minimum of 2 independent measurements.
Ki values are calculated using the following formula: Ki=IC50/(1+(AGconc./EC50)).
AGconc.=10 μM; EC50 corresponds to the DHPG concentration which is necessary for the semimaximal influx of Ca^2+.

rats = assay: Formaldehyde test in rats (phase 2, chronic pain component); format: in vivo; conditions: rat
Procedure: III. Formaldehyde Test in Rats: The formaldehyde test (Dubuisson, D. and Dennis, S. G., 1977, Pain, 4, 161-174) is a model of both acute and chronic pain. A biphasic nociceptive response is induced in freely mobile test animals by a single formaldehyde injection into the dorsal side of a hind paw, said response being detected by the observation of three clearly distinguishable behaviour patterns. The response is in two phases: phase 1=immediate response (duration up to 10 min; paw shaking, licking), phase 2=late response (after a resting phase; likewise paw shaking, licking; duration up to 60 min). The 1st phase reflects direct stimulation of the peripheral nocisensors with an elevated spinal nociceptive input or glutamate release (acute pain phase); the 2nd phase reflects spinal and peripheral hypersensitisation (chronic pain phase). In the investigations presented here, it was the chronic pain component (phase 2) which was evaluated. […] The specific behavioural changes, such as raising and shaking the paw, changes in weight bearing of the animal and biting and licking responses are observed and recorded over the observation period of 21 to 27 min after the formaldehyde injection. The various behaviours are summarised as a “pain rate” (PR), which is the calculated nociceptive response averaged over 3 min sub-intervals. […]

T1 sequence (I3LUI7 1-1212): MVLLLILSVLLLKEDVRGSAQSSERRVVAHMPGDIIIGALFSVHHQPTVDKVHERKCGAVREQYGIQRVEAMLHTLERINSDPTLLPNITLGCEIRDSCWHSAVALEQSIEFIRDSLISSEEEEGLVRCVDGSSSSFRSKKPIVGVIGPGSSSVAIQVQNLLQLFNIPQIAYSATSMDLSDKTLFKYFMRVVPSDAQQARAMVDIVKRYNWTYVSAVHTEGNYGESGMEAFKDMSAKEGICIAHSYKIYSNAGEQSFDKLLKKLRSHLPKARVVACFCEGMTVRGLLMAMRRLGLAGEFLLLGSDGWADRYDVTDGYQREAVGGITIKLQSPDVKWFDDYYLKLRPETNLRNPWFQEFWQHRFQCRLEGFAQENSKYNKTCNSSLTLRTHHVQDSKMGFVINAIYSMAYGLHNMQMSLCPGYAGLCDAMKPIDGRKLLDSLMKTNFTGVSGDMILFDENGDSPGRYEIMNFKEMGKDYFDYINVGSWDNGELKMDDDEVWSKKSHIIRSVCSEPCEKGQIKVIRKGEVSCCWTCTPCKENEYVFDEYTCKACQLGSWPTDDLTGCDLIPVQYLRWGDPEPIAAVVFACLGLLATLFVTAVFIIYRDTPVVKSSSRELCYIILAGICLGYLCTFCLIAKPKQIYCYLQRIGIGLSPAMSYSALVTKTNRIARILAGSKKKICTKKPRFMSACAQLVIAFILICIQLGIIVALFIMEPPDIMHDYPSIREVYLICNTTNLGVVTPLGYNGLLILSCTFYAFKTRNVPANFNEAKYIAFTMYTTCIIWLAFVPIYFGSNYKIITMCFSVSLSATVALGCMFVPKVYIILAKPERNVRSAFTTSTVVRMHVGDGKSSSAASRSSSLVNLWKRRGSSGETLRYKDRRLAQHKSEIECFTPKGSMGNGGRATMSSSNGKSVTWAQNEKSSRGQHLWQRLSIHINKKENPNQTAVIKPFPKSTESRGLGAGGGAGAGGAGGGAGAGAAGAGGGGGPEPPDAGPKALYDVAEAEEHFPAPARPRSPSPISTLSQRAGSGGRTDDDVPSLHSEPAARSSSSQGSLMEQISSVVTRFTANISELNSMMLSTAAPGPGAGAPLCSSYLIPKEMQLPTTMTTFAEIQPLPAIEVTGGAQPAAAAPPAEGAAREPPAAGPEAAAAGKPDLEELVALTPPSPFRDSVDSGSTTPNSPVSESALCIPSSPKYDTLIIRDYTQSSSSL

Structure (SMILES) | IC50 (mGluR5 receptor [1]) | Ki (mGluR5 receptor [2]) | ED50 (rats; iv, i.v. administration) | inhibition in the formaldehyde test (rats; oral administration of 10 mg/kg) | inhibition at 1 µM (mGluR5 receptor [1]; 1 μM test compound)
CN(CCN(C)c1nccs1)C(=O)C#Cc1ccccc1 [Example 4, N-Methyl-N-(2-(methyl(thiazol-2-yl)amino)ethyl)-3-phenylpropiolamide] | 57 nM | 5.2 nM | – | – | –
Cc1cccc(C#CC(=O)N(C)CCN(C)c2nccs2)c1 [Example 7, N-methyl-N-(2-(methyl(thiazol-2-yl)amino)ethyl)-3-(3-methylphenyl)-propiolamide] | 26 nM | 4.8 nM | – | – | –
CN(CCNC(=O)C#Cc1ccccc1)c1nccs1 [Example 9, N-(2-(methyl(thiazol-2-yl)amino)ethyl)-3-phenylpropiolamide] | 38 nM | 1 nM | – | – | –
CN(CCN(C)c1nccs1)C(=O)C#Cc1cccc(C#N)c1 [Example 13, N-methyl-N-(2-(methyl(thiazol-2-yl)amino)ethyl)-3-(3-cyanophenyl)-propiolamide] | 87 nM | 20.8 nM | – | – | –
O=C(C#Cc1ccccc1)NC1CCCN(c2nccs2)C1 (stereo not drawn) [Example 15, 3-Phenyl-N-(1-(thiazol-2-yl)piperidin-3-yl)propiolamide] | 86 nM | 14.4 nM | – | – | –
CN(CCN(C)c1nccs1)C(=O)C#Cc1cccc(Cl)c1 [Example 18, N-Methyl-N-(2-(methyl(thiazol-2-yl)amino)ethyl)-3-(3-chlorophenyl)-propiolamide] | 20 nM | 4.9 nM | – | – | –
CN(CCNC(=O)C#Cc1cccc(Cl)c1)c1nccs1 [Example 19, N-(2-(Methyl(thiazol-2-yl)amino)ethyl)-3-(3-chlorophenyl)-propiolamide] | 1.9 nM | 0.4 nM | – | – | –
CN(CCNC(=O)C#Cc1cccc(Cl)c1)c1nccs1.Cl [Example 23, N-(2-(Methyl(thiazol-2-yl)amino)ethyl)-3-(3-chlorophenyl)-propiolamide hydrochloride] | 5.6 nM | – | 1 mg/kg | 38% | –
CCOC(=O)c1csc(N(C)CCNC(=O)C#Cc2cccc(Cl)c2)n1 [Example 26, N-(2-(methyl-(4-ethoxycarbonylthiazol-2-yl)amino)ethyl)-3-(3-chlorophenyl)-propiolamide] | 86 nM | 3.6 nM | – | – | –
O=C(C#Cc1cccc(Cl)c1)NC1CCCN(c2nccs2)C1 (stereo not drawn) [Example 32, 3-(3-chlorophenyl)-N-(1-(thiazol-2-yl)piperidin-3-yl)-propiolamide] | 5 nM | 4 nM | – | – | –
CN(CCNC(=O)C#Cc1cccc(Cl)c1)c1nc(Br)cs1 [Example 33, N-(2-((4-bromothiazol-2-yl)(methyl)amino)ethyl)-3-(3-chlorophenyl)propiolamide] | 13 nM | 10 nM | – | – | –
CN(c1nccs1)C1CN(C(=O)C#Cc2cccc(Cl)c2)C1 [Example 35, 1-(3-(3-Chlorophenyl)propioloyl)-3-(methyl(thiazol-2-yl)amino)azetidine] | 2.2 nM | 6.5 nM | – | – | –
CC(C)(C)c1csc(N2CCC(NC(=O)C#Cc3cccnc3)C2)n1 (stereo not drawn) [Example 123, N-(1-(4-tert.-butylthiazol-2-yl)pyrrolidin-3-yl)-3-(pyridin-3-yl)propiolamide] | – | – | – | – | 20%
CN(CCNC(=O)C#Cc1cccc(Cl)c1)c1ncc(F)s1 [Example 126, 3-(3-Chlorophenyl)-N-(2-((5-fluorothiazol-2-yl)(methyl)amino)ethyl)propiolamide] | 16 nM | – | – | – | –
